The values below come from US11786537B2 (priority 2022, dated 2023).

In one series the test system is VERO-E6 cells. Briefly: MTT cytotoxicity assay (CC50). Format: cell-based. The following applies: 24 h, in words. How it is done: To assess the half maximal cytotoxic concentration (CC50), stock solutions of the test compounds were prepared in 10% DMSO in ddH2O and diluted further to the working solutions with DMEM. The cytotoxic activity of the extracts was tested in VERO-E6 cells by using the 3-(4,5-dimethylthiazol-2-yl)-2,5-diphenyltetrazolium bromide (MTT) method with minor modifications. Briefly, the cells were seeded in 96 well-plates (100 μl/well at a density of 3×10^5 cells/ml) and incubated for 24 h at 37° C. in 5% CO2. After 24 h, cells were treated with various concentrations of the tested compounds in triplicates. 24 h later, the supernatant was discarded, and cell monolayers were washed with sterile 1× phosphate buffer saline (PBS) 3 times and MTT solution (20 μl of 5 mg/ml stock solution) was add to each well and incubated at 37° C. for 4 h followed by medium aspiration. In each well, the formed formazan crystals were dissolved with 200 μl of acidified isopropanol (0.04 M HCl in absolute isopropanol=0.073 ml HCL in 50 ml isopropanol). Absorbance of formazan solutions was measured at λ max 540 nm with 620 nm as a reference wavelength using a multi-well plate reader. […]

The subject of series [1] is SARS-CoV-2 (hCoV-19/Egypt/NRC-03/2020). The class given is cell-based.

“Also recorded” adds a separate entry of the source.

With “4,4-bis[(dimethylamino)methoxy]-7,7′-dihexyl-10,10′-dimethyl-3,3′-bis(4-nitrophenyl)-8,8′-dioxo-4,4′-spirobi[5-oxa-2,7-diaza-3-azonia-4λ^6-cuprabicyclo[4.4.0]deca-1(6),2,9-triene]-9,9′-dicarbonitrile [Complex D1]”, the toxicity entry in the series on VERO-E6 cells is given as “low toxicity”. Moreover, in series [1], the “antiviral activity against SARS-CoV-2” value is given as “active antiviral activity; also recorded: significant antiviral activity” and the “inhibitory effect / viral inhibition” value is recorded as “somewhat higher inhibitory effect compared to D2; also recorded: acceptable range of viral inhibition”.
As to “7,7′-dihexyl-10,10′-dimethyl-8,8′-dioxo-3,3′-bis(p-tolyl)-4,4′-spirobi[5-oxa-2,7-diaza-3-azonia-4λ^4-cuprabicyclo[4.4.0]deca-1(6),2,9-triene]-9,9′-dicarbonitrile [Complex D2]”, in the series with VERO-E6 cells, the toxicity entry was “low toxicity”. Further, in series [1], the “antiviral activity against SARS-CoV-2” value is given as “active antiviral activity; also recorded: significant antiviral activity” and the “inhibitory effect / viral inhibition” value is “acceptable range of viral inhibition”.
